Measurements from US20090092550A1, “PORPHYRIN LINKED METRONIDAZOLE AGAINST GUM DISEASE: PORPHYROMONAS GINGIVALIS” (The University of Sydney, priority 2004, published 2009).
≈ marks a conversion by molar mass, not a printed value. Read-outs that look alike come from different tables or passages of the source.

How the values were obtained:
[1] = system: P. gingivalis ATCC 33277 cells; assay: Growth inhibition assay, turbidity (optical density) over 72 h; assay type: cell-based, Porphyromonas gingivalis
Description: The mono-adducts 20 and 21 and metronidazole were tested on the targeted organism, P. gingivalis with the standard controls to compare the potency of the mono-adducts 20 and 21 compared to metronidazole towards the targeted organism. In a 96-well polystyrene plate divided into four sections, a series of dilutions of the mixture of the mono-adducts 20 and 21, metronidazole, DPIX 5 and DMSO were made up. These were transferred into test-tubes in quadruplicate and the P. gingivalis cells were added in triplicate leaving one test-tube as a blank control free of P. gingivalis cells. The growth of the P. gingivalis cells were monitored over 3 days (72 h) and growth was noted by the turbidity of the medium and recorded as the optical density.
The growth inhibition assays show differences in growth responses to metronidazole and the mixture of the mono-adducts 20 and 21.
(§1) Bovine hemoglobin (Hb), Hb-agarose beads, hemin (Hm) and Hm-agarose beads were supplied by Sigma-Aldrich Company. The translated product of a synthetic HA2 gene, derived from the sequence of RgpA, was expressed in E. coli with a C-terminal polyhistidine tag (International Patent Application No. WO 2002061091) and is referred to as rHA2. rHA2 was functionally purified by Hb-agarose affinity chromatography. Anti-gingipain monoclonal antibody (mAb) 5A1 was prepared in mice. Secondary goat anti-mouse antibody conjugated with alkaline phosphatase (AP) was supplied by Dako Corporation. 4-nitrophenylphosphate (p-NPP) was supplied by Boehringer. P. gingivalis ATCC 33277 cells was used in all growth assays and cultures were anaerobically grown at 37° C. in an atmosphere containing CO2 (5%), H2 (10%) and N2 (85%). P. gingivalis and P. melaminogenica cells were grown in Center for Disease Control (CDC) medium and F. nucleatum cells were grown in Brain Heart Infusion (BHI) medium.
Cultivation and biological testing were carried out on P. gingivalis ATCC 33277 cells and the cultures were anaerobically grown at 37° C. in an atmosphere containing CO2 (5%), H2 (10%) and N2 (85%). The cultures were inoculated with heme, menadione and either DMSO, DPIX 5, metronidazole, DPIX 5+ metronidazole or adduct 20 and 21. In a 96-well polystyrene plate divided into four sections, a series of dilutions of the mixture of the mono-adducts 20 and 21, metronidazole, DPIX 5 and DMSO were made up. These were transferred into test-tubes in quadruplicate and the P. gingivalis cells were added in triplicate leaving one test-tube as a blank control free of P. gingivalis cells. The growth of the P. gingivalis cells were monitored over 3 days (72 h) and growth was noted by the turbidity of the medium and recorded as the optical density.

P. melaminogenica = assay: Growth inhibition assay on a related organism; assay type: cell-based, Prevotella melaminogenica; conditions: 20 μM, over 72 h (FIG. 7B)
Description: as §1

F. nucleatum = assay: Growth inhibition assay on an unrelated organism; assay type: cell-based, Fusobacterium nucleatum; conditions: 20 μM, over 72 h (FIG. 7C)
Description: As it is useful to test the mono-adducts 20 and 21 on non-related bacteria as well, as there is a large and complex community of bacteria present in the gingival crevice causing periodontal diseases, the mono-adducts 20 and 21 were also tested on the unrelated organism F. nucleatum.
as §1

[2] = system: P. gingivalis ATCC 33277 cells; conditions: literature (Poulet et al. 1999; Mitchell 1984); cited from earlier work
[3] = biological target: HA2 domain (rHA2, derived from the sequence of RgpA); assay: ELISA binding of plate-coated porphyrin to rHA2; parameters: species or system Porphyromonas gingivalis; conditions: FIG. 5, mean of three similar KD50s, read-out: KD50 to HA2
Description: The KD50 of the mono-adducts 20 and 21 to HA2 was established using Enzyme-Linked ImmunoSorbent Assay (ELISA), whereby a 96-well polystyrene plate was coated with either the mono-adducts 20 and 21 or hemin in an alkaline coating buffer at pH 9.0. The plates were then washed and blocked for 30 min with a phosphate buffered saline solution containing Tween-20, a […] detergent to prevent any non-specific binding. Dilutions of HA2 in a slightly acidic acetate buffer at pH 5.5 were then titrated down the rows of the 96-well plate and the plate was incubated in an IR Sensor CO2 incubator at 37° C. for 1.5 h to allow binding of either the mono-adducts 20 and 21 or hemin to HA2. […] A secondary goat anti-mouse antibody conjugated with alkaline phosphatase (AP) was then added to detect the primary antibody and the binding of either the mono-adducts 20 and 21 or hemin to HA2 was recorded as optical density on a Bio-rad Microplate reader as the amount of dephosphorylation of the substrate para-nitrophenolphosphate to para-nitrophenol catalyzed by AP. […]
The mixture of mono-metronidazole-substituted adducts 20 and 21 and heme (both at 5 μg/ml) were coated on the plastic well surfaces of a 96-well plate in coating buffer at pH 9.0. […] Apparent dissociation constants were calculated from best-fit KD50 binding curves.

[4] = biological target: HA2 domain (rHA2, derived from the sequence of RgpA); conditions: known value for the standard; read-out: binding dissociation constant to HA2; cited from earlier work

MIC ([1]; Porphyromonas gingivalis, ATCC33277, P. gingivalis, approximate, from FIG. 6, read-out: Minimum Inhibitory Concentration (MIC)) [µM] | Molecule | growth suppression of P. gingivalis ([1]; 0.5 μM, over 72 h (FIG. 6E)) | time after which activity is lost and P. gingivalis growth recovers ([1]; 1 μM (FIG. 6D)) | growth inhibition of P. gingivalis ([1]; 4 μM, over 72 h (FIG. 6B)) | growth inhibition of P. gingivalis ([1]; 20 μM, over 72 h (FIG. 6A, FIG. 7A)) | growth suppression of P. gingivalis ([1]; 2 KM, over 72 h (FIG. 6C)) | growth inhibition of P. melaminogenica (P. melaminogenica) | growth inhibition of F. nucleatum (F. nucleatum) | activity against P. gingivalis [2] | Kd [3] [nM] | Kd [4] [nM]
1 to 2 (≈ 0.171 to 0.342 µg/mL) | Cc1ncc([N+](=O)[O-])n1CCO [metronidazole] | no effect of growth suppression | approximately 50 h | complete inhibition | complete inhibition of growth | completely supresses growth | complete suppression of growth | complete inhibition | excellent activity | – | –
– | hemin | – | – | – | – | – | – | – | – | 15 | ~15
